In patent publication US10017524B2, “Compound and pharmaceutical composition for neuropsychological disorder or malignant tumor” (KYOTO UNIVERSITY, priority 2012, dated 2018):

What was measured:
[1] = tested on: phosphorylation of a threonine residue at position 212 of tau protein by DYRK1A protein; test: Inhibitory activity on phosphorylation of tau protein in cultured cells expressing tau and DYRK1A (western blot, Thr212); assay type: cell-based; details: phospho-Thr212 tau
Method: The inhibitory activity of the compounds synthesized in the production examples on the phosphorylation of tau protein was evaluated by an evaluation system using the following cultured cells.
The cultured cells that can induce the expressions of tau protein and DYRK1A protein individually and that allow the phosphorylation of the tau protein to be evaluated depending on the activity of the DYRK1A protein were used in the evaluation system. […] Therefore, the inhibitory activity on the phosphorylation of the tau protein can be evaluated by inducing the expressions of both the tau protein and the DYRK1A protein, and evaluating the degree of phosphorylation of a threonine residue at position 212 of the tau protein.
The compounds 1, 4, and 6 to 9 (10 μM) were added to the evaluation system, and the phosphorylation of the tau protein was detected with the antibody that specifically recognizes the phosphorylation of a threonine residue at position 212 of the tau protein. […] The “control” represents the result of adding no compound.
The inhibitory activity of the compounds 1 and 2 on the phosphorylation of tau protein was evaluated in the same manner as the Experimental example 1.
(§1) The “control” represents the result of adding no compound.
The inhibitory activity of the compounds 3, 6, and 9 to 15 on the phosphorylation of tau protein was evaluated in the same manner as the experimental example 1. FIGS. 7 to 9 show an example of the results.

[2] = tested on: MDA-MB-453 human breast cancer cells (triple-negative); test: Growth inhibition, adherent and non-adherent culture (Alamar Blue); assay type: cell-based; details: MDA-MB-453, cells cultured to prevent adhering
Method: (§2) Specifically, the cells were seeded on a 24 Well plate, and the compounds at a predetermined concentration were added. After cultivation for 5 days, the number of cells was calculated by detecting the fluorescence intensity with Alamar Blue. The culture medium containing the compounds was replaced every day. FIGS. 10 to 12 show an example of the results.
(§3) In addition, the effect was also confirmed when the target cells were cultured to prevent them from adhering to each other.

[3] = tested on: MDA-MB-468 human breast cancer cells (triple-negative); test: as above; assay type: cell-based; details: MDA-MB-468, cells cultured to prevent adhering
Method: as §2, §3

[4] = Intracerebral transferability after caudal vein administration; assay type: in vivo; details: male, Wistar, intravenous, rat, 2 mg/head
Method: The intracerebral transferability of the compound 1 was evaluated under the following conditions. […] In other words, the intracerebral transferability of the compound 1 was confirmed.
Experimental animal: 8-week-old male Wistar rat (about 300 g), caudal vein administration
Administered vehicle: 20% PPG/8% tween 80/saline (2 mL/head)
Compound dosage: 2 mg/head
Sampling time: 3 minutes after administration for plasma; 7 minutes after administration for cerebrospinal fluid

[5] = Oral absorbability; assay type: in vivo, B6J mouse; details: mouse, oral administration, 100 mg/kg, 5% gum arabic, plasma
Method: The oral absorbability of the compound 1 was evaluated under the following conditions.

[6] = Oral absorbability and intracerebral transferability (plasma and brain tissue concentration); assay type: in vivo; details: ICR mouse, 100 mg/kg; for Kp / half-life: male; for Kp: brain tissue / plasma, read-out: Brain tissue/blood ratio (B/P: mL/g); for half-life: plasma and brain tissue, read-out: Half-life in blood and in brain tissue
Method: The oral absorbability and the intracerebral transferability of the compounds 1 and 2 were evaluated under the following conditions. FIG. 6 and Table 1 show an example of the results.
Experimental animal: 7-week-old male ICR mouse, oral administration
Administered vehicle: 0.5% carboxymethylcellulose
Compound dosage: 100 mg/kg
FIG. 6 and Table 1 show an example of the results of measuring a plasma concentration and a brain tissue concentration after oral administration of the compounds 1 and 2. As shown in FIG. 6 and Table 1, the results confirmed that the compounds 1 and 2 had both oral absorbability and intracerebral transferability.

[7] = tested on: phosphorylation of tau protein in the brain; test: Inhibition of stress-induced phosphorylation of tau protein in the brain; assay type: in vivo; details: mice, 100 mg/kg before stress (ice-cold water 5 minutes), brain tissue western blot
Method: The inhibitory activity of the compounds 1 and 2 on the phosphorylation of tau protein in the brain was evaluated. In the evaluation, a system was used which induced the phosphorylation of tau protein by imposing stress on mice (i.e., bathing the mice in ice-cold water for 5 minutes).

[8] = tested on: retinoblastoma cell lines WERI; test: Inhibition of growth of cancer cells (Alamar Blue); assay type: cell-based
Method: as §2

[9] = molecular target: DYRK1A (Homo sapiens, UniProt Q13627); test: DYRK1A inhibitory capacity in vitro; assay type: biochemical
Description: as §1

[10] = tested on: PC-9-GR-step lines (gefitinib-resistant sub-lines of PC-9); test: Growth inhibition, microscopic observation; assay type: cell-based, human; details: microscope
[11] = tested on: PC-9-GR-high lines; test: Growth inhibition, microscopic observation; assay type: cell-based, human; details: microscope
[12] = tested on: human lung adenocarcinoma-derived cell lines (PC-9); test: Growth inhibition, microscopic observation; assay type: cell-based; details: PC-9 lines, microscope
[13] = tested on: memory and learning disabilities induced by amyloid-β peptide (25-35); test: Remedial action on memory and learning disabilities induced by amyloid-β peptide (water maze, probe test); assay type: in vivo, Swiss mice; details: mice, amyloid-β icv, 100 mg/kg twice a day
Method: The remedial action of the compound 2 on memory and learning disabilities was evaluated. In the evaluation, amyloid-β peptide was administered into the cerebral ventricles of mice, and an evaluation system that induces memory and learning disabilities was used (Maurice et al., 1996). The tests were performed using 6-week-old male Swiss mice, which were divided into groups of 12 (n=12). Amyloid-β peptide (25-35, sequence: Gly-Ser-Asn-Lys-Gly-Ala-Ile-Ile-Gly-Leu-Met) (SEQ ID NO: 1) or scrambled amyloid-β (25-35, sequence: Ala-Lys-Ile-Gly-Asn-Ser-Ile-Gly-Leu-Met-Gly) (SEQ ID NO: 2) which was used as control peptide, was dissolved in distilled water, and each of the peptide solutions was incubated at 37° C. for 4 days.
The compound 2 for medication was dissolved in DMSO, and then diluted with 0.5% methylcellulose, thereby preparing a 10 mg/mL solution. […]
In order to evaluate a reference memory, water maze was performed three times a day using a circular pool (140 cm in diameter and 40 cm in height) and a platform (10 cm in diameter) between the 8th day and the 12th day of the tests. […] During the recording, the total time the mice spent in one-fourth of the area of the circle, including the place where the platform had been located until the previous day, was recorded. […]

[14] = compounds of 10 μM, cells expressing tau and DYRK1A

O=C1NC(=S)N/C1=C\c1ccc2oc3ccccc3c2c1 [Compound 15, (Z)-5-[(dibenzo[b,d]furan-2-yl)methylene]-2-thioxoimidazolidin-4-one]
inhibitory effect on the phosphorylation of the tau protein [1, 14]: inhibitory effect | inhibitory effect on the anchorage-independent growth [2]: inhibitory effect | inhibitory effect on the anchorage-independent growth [3]: inhibitory effect

O=C1NC(=S)S/C1=C\c1ccc2c(c1)CCO2 [Compound 4, (Z)-5-[(2,3-dihydrobenzofuran-5-yl)methylene]-2-thioxothiazolidin-4-one]
inhibitory effect on the phosphorylation of the tau protein [1, 14]: inhibitory effect

O=C1NC(=S)S/C1=C\c1ccc2oc3ccccc3c2c1 [Compound 6, (Z)-5-[(dibenzo[b,d]furan-2-yl)methylene]-2-thioxothiazolidin-4-one]
inhibitory effect on the phosphorylation of the tau protein [1, 14]: significant inhibitory effect

CCN1/C(=C/C(C)=O)Sc2ccc3c(c21)CCO3 [Compound 1, (Z)-1-[1-ethyl-7,8-dihydrobenzofuro[4,5-d]thiazol-2(1H)-ylidene]propan-2-one]
concentration at 7 min ([4]; cerebrospinal fluid, 7 minutes after administration): 1.88 µM | concentration at 3 min ([4]; plasma, 3 minutes after administration): 13.5 µM | oral absorbability [5]: confirmed | inhibitory effect on the phosphorylation of the tau protein ([1]; compounds at 0.3 to 10 μM): significant inhibitory effect | inhibitory effect on the phosphorylation of the tau protein [1, 14]: significant inhibitory effect | Maximum blood concentration [6]: 1900 ng/mL | Maximum brain tissue concentration [6]: 1700 ng/g | Time to maximum concentration in blood and in brain tissue [6]: within 15 minutes | Kp [6]: ~0.9 | half-life [6]: ≤ 1 h | inhibition of stress-induced phosphorylation of the tau protein in brain [7]: could inhibit the stress-induced phosphorylation of the tau protein | inhibitory effect on the growth of the cancer cells [8]: inhibitory effect | IC50 [9]: 0.049 µM

CCN1/C(=C/C(C)=O)Sc2ccc3oc4ccc(C)cc4c3c21 [Compound 12, (Z)-1-(1-ethyl-9-methylbenzo[2,3]benzofuro[4,5-d]thiazol-2(1H)-ylidene)propan-2-one]
inhibitory effect on the phosphorylation of the tau protein [1, 14]: inhibitory effect | apoptosis-inducing activity on the cancer cells [10]: excellent apoptosis-inducing activity | apoptosis-inducing activity on the cancer cells [11]: excellent apoptosis-inducing activity | apoptosis-inducing activity on the cancer cells [12]: excellent apoptosis-inducing activity

CCN1/C(=C/C(C)=O)Sc2ccc3occc3c21 [Compound 2, (Z)-1-[1-ethyl-7,8-benzofuro[4,5-d]thiazol-2(1H)-ylidene]propan-2-one]
inhibitory effect on the phosphorylation of the tau protein ([1]; compounds at 0.3 to 10 μM): significant inhibitory effect | Maximum blood concentration [6]: 8400 ng/mL | Maximum brain tissue concentration [6]: 8500 ng/g | Time to maximum concentration in blood and in brain tissue [6]: 2 h | Kp [6]: ~1 | half-life [6]: ≥ 4 h | inhibition of stress-induced phosphorylation of the tau protein in brain [7]: could inhibit the stress-induced phosphorylation of the tau protein | reference memory in water maze (time to reach the platform) ([13]; 8th to 12th day): improved the reduced memory and learning abilities | probe test (time spent around the platform) ([13]; 13th day): improved the reduced memory and learning abilities | IC50 [9]: 0.04 µM

CCN1/C(=C/C(C)=O)Sc2ccc3oc4cc(C)c(C)cc4c3c21 [Compound 10, (Z)-1-(8,9-dimethyl-1-ethylbenzo[2,3]benzofuro[4,5-d]thiazol-2(1H)-ylidene)propan-2-one]
inhibitory effect on the phosphorylation of the tau protein [1, 14]: inhibitory effect

CCN1/C(=C/C(C)=O)Sc2ccc3oc4cc(Cl)ccc4c3c21 [Compound 13, (Z)-1-(8-chloro-1-ethylbenzo[2,3]benzofuro[4,5-d]thiazol-2(1H)-ylidene)propan-2-one]
inhibitory effect on the phosphorylation of the tau protein [1, 14]: inhibitory effect

N=C1NC(=O)/C(=C/c2ccc3oc4ccccc4c3c2)S1 [Compound 9, (Z)-5-[(dibenzo[b,d]furan-2-yl)methylene]-2-iminothiazolidin-4-one]
inhibitory effect on the phosphorylation of the tau protein [1, 14]: inhibitory effect

CCN1/C(=C/C(C)=O)Sc2ccc3oc4cc(C)ccc4c3c21 [Compound 11, (Z)-1-(1-ethyl-8-methylbenzo[2,3]benzofuro[4,5-d]thiazol-2(1H)-ylidene)propan-2-one]
inhibitory effect on the phosphorylation of the tau protein [1, 14]: inhibitory effect

N=C1NC(=O)/C(=C/c2ccc3occc3c2)S1 [Compound 8, (Z)-5-[(benzofuran-5-yl)methylene]-2-iminothiazolidin-4-one]
inhibitory effect on the phosphorylation of the tau protein [1, 14]: significant inhibitory effect

CCN1/C(=C/C(C)=O)Sc2ccc3oc4ccc(Cl)cc4c3c21 [Compound 14, (Z)-1-(9-chloro-1-ethylbenzo[2,3]benzofuro[4,5-d]thiazol-2(1H)-ylidene)propan-2-one]
inhibitory effect on the phosphorylation of the tau protein [1, 14]: inhibitory effect

N=C1NC(=O)/C(=C/c2ccc3c(c2)CCO3)S1 [Compound 7, (Z)-5-[(2,3-dihydrobenzofuran-5-yl)methylene]-2-iminothiazolidin-4-one]
inhibitory effect on the phosphorylation of the tau protein [1, 14]: significant inhibitory effect
